Assay results published in PMC8550792, “Evolution of kinase polypharmacology across HSP90 drug discovery” (Cell Chemical Biology, 2021).

Legend:
Assay in all cases: biochemical
Assay type in all cases: biochemical
382 unique human kinases [1] = biological target: T1, 382 unique human kinases (Homo sapiens, UniProt P10721, T670I); settings: c-Kit (T670I); 10 uM; read-out: % Enzyme Activity (relative to DMSO controls)
T1 construct: purchased Reaction Biology (HotSpot contract assay)

382 unique human kinases [2] = biological target: T2, 382 unique human kinases (Homo sapiens, UniProt Q9UM73, L1196M); settings: ALK (L1196M), 10 uM; for remaining activity at 10 µM: read-out: % Enzyme Activity (relative to DMSO controls)
T2 construct: purchased Reaction Biology (HotSpot contract assay)

382 unique human kinases [3] = biological target: T3, 382 unique human kinases (Homo sapiens, UniProt Q9UM73, F1174L); settings: ALK (F1174L), 10 uM; for remaining activity at 10 µM: read-out: % Enzyme Activity (relative to DMSO controls)
T3 construct: purchased Reaction Biology (HotSpot contract assay)

382 unique human kinases [4] = biological target: T4, 382 unique human kinases (Homo sapiens, UniProt P00533, D761Y); settings: kinase EGFR (D761Y), compound 10 uM; for remaining activity at 10 µM: read-out: % Enzyme Activity (relative to DMSO controls)
T4 construct: purchased Reaction Biology (HotSpot contract assay)

382 unique human kinases [5] = biological target: T5, 382 unique human kinases (Homo sapiens, UniProt O94921); settings: CDK14/cyclin Y (PFTK1), 10 uM; for remaining activity at 10 µM: read-out: % Enzyme Activity (relative to DMSO controls)
T5 construct: purchased Reaction Biology (HotSpot contract assay)

382 unique human kinases [6] = biological target: T6, 382 unique human kinases (Homo sapiens, UniProt P45985); settings: MKK4, [ATP] 2.5 µM, compound 10 uM; for remaining activity at 10 µM: read-out: % Enzyme Activity (relative to DMSO controls)
T6 construct: purchased Reaction Biology (HotSpot contract assay)
T6 sequence (P45985 1-399): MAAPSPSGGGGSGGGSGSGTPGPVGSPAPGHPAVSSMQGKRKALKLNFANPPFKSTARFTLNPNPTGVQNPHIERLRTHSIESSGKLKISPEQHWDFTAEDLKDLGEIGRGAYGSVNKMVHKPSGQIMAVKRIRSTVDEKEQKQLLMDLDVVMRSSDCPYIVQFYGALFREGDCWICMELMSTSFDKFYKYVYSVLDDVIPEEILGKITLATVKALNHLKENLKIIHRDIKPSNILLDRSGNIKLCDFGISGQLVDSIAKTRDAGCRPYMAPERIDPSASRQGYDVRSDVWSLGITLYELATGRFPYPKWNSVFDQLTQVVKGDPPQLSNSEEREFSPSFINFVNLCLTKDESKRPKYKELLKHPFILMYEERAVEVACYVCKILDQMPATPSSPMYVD

382 unique human kinases [7] = biological target: T7, 382 unique human kinases (Homo sapiens, UniProt P54753); settings: EPHB3, 10 uM; for remaining activity at 10 µM: read-out: % Enzyme Activity (relative to DMSO controls)
T7 construct: purchased Reaction Biology (HotSpot contract assay)
T7 sequence (P54753 34-998): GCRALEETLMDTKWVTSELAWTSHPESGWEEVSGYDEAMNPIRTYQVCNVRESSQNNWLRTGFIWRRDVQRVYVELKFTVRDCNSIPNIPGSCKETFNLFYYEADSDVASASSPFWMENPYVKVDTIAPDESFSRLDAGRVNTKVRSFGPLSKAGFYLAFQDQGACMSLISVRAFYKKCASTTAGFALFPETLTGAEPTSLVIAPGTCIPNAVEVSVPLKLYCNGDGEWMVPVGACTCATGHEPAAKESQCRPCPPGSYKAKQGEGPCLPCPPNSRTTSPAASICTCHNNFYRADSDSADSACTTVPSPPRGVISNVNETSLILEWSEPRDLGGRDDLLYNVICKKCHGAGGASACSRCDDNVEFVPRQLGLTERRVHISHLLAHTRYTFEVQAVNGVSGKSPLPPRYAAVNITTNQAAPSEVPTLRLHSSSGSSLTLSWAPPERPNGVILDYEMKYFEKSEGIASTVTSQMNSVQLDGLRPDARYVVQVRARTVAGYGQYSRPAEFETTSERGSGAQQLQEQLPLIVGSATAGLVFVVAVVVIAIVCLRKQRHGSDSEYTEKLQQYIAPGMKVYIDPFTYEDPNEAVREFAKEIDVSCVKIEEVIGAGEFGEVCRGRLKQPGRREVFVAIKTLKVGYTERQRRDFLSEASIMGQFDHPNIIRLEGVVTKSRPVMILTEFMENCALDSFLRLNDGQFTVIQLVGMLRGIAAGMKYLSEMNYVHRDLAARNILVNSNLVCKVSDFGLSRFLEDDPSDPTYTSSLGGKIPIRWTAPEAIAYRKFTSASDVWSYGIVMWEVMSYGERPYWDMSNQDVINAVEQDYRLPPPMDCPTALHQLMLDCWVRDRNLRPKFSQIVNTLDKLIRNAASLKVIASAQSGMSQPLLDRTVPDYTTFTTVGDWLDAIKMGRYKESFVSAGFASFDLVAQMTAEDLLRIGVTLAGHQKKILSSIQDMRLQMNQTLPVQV

382 unique human kinases [8] = biological target: T8, 382 unique human kinases (Homo sapiens, UniProt Q9H2X6); settings: HIPK2, 10 uM; for remaining activity at 10 µM: read-out: % Enzyme Activity (relative to DMSO controls)
T8 construct: purchased Reaction Biology (HotSpot contract assay)

382 unique human kinases [9] = biological target: T9, 382 unique human kinases (Homo sapiens, UniProt P36888); settings: FLT3, [ATP] 50 µM, compound 10 uM; for remaining activity at 10 µM: read-out: % Enzyme Activity (relative to DMSO controls)
T9 construct: purchased Reaction Biology (HotSpot contract assay)
T9 sequence (P36888 27-993): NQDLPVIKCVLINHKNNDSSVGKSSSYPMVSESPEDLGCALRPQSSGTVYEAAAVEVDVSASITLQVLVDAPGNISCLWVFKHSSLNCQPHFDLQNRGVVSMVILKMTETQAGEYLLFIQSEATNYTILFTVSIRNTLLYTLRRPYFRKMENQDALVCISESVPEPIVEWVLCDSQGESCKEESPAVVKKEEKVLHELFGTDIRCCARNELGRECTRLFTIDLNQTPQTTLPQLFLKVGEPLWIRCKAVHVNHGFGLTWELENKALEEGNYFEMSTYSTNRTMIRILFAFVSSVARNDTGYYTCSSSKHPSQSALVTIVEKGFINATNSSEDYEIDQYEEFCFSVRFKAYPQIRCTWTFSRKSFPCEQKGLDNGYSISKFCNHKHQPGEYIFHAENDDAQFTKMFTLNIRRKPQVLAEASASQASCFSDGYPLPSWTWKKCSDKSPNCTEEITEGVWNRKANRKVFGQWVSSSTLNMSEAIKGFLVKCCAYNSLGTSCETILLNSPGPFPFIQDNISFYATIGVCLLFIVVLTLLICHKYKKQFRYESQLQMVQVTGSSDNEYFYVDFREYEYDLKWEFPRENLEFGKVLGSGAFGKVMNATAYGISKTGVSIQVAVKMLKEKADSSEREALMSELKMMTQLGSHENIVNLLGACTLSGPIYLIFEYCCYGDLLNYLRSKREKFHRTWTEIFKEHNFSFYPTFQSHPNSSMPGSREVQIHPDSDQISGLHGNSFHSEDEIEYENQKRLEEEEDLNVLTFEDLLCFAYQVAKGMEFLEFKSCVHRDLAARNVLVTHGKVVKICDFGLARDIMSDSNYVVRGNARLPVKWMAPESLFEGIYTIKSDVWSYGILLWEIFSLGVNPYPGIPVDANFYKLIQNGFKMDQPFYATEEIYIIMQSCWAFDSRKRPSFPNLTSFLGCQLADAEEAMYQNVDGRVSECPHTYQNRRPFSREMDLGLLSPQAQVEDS

T5 sequence (O94921 whole entry): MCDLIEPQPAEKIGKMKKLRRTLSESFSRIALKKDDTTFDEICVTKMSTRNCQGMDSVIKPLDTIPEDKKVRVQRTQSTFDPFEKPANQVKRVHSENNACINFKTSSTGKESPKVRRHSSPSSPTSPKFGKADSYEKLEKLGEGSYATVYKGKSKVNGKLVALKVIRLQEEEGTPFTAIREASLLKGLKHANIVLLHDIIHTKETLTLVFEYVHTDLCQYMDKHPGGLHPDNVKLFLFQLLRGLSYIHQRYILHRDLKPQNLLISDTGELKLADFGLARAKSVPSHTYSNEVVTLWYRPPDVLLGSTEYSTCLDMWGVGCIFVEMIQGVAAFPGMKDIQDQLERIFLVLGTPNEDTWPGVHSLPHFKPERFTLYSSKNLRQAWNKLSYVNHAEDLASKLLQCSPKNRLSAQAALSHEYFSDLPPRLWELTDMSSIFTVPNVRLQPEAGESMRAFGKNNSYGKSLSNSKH
T2 sequence (Q9UM73 19-1620 L1196M): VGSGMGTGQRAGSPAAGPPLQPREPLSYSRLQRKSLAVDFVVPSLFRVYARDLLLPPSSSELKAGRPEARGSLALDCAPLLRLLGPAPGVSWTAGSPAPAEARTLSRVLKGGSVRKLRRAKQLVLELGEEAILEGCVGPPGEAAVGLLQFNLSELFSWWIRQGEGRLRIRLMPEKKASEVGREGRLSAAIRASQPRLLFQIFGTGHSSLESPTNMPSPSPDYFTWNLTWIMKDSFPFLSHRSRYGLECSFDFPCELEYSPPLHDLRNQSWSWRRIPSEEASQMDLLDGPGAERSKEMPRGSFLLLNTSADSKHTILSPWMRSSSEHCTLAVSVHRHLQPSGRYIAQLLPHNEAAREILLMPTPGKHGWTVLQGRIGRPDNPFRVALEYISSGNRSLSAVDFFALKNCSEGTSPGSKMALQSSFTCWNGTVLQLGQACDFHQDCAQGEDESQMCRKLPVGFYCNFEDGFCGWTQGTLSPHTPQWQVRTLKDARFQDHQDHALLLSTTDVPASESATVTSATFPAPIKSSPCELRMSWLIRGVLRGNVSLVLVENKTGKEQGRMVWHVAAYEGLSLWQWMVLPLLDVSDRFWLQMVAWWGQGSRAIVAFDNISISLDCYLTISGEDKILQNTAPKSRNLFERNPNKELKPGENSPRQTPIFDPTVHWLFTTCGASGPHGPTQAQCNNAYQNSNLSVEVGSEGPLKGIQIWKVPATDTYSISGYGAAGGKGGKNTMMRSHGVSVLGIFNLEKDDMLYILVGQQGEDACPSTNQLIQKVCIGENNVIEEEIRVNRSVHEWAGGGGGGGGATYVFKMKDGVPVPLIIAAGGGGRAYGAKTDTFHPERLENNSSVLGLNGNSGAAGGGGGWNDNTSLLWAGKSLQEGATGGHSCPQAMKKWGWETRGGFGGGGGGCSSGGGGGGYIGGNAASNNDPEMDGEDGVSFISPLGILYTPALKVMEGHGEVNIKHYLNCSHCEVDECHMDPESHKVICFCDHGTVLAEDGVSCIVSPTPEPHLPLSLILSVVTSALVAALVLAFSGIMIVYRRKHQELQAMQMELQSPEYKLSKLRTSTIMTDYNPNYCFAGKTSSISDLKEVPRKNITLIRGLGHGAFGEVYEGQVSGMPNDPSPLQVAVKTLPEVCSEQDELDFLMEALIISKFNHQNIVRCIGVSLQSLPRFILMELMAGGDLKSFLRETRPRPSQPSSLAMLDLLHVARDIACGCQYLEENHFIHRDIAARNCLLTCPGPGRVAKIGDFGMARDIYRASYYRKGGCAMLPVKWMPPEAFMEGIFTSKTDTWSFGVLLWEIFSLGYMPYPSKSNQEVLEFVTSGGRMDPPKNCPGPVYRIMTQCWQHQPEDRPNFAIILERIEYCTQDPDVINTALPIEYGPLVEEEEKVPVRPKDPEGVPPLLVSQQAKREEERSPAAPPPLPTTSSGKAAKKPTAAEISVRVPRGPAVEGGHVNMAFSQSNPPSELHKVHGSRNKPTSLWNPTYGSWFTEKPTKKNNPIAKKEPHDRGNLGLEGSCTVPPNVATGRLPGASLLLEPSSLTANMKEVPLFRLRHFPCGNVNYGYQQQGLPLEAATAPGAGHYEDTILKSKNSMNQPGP
T8 sequence (Q9H2X6 whole entry): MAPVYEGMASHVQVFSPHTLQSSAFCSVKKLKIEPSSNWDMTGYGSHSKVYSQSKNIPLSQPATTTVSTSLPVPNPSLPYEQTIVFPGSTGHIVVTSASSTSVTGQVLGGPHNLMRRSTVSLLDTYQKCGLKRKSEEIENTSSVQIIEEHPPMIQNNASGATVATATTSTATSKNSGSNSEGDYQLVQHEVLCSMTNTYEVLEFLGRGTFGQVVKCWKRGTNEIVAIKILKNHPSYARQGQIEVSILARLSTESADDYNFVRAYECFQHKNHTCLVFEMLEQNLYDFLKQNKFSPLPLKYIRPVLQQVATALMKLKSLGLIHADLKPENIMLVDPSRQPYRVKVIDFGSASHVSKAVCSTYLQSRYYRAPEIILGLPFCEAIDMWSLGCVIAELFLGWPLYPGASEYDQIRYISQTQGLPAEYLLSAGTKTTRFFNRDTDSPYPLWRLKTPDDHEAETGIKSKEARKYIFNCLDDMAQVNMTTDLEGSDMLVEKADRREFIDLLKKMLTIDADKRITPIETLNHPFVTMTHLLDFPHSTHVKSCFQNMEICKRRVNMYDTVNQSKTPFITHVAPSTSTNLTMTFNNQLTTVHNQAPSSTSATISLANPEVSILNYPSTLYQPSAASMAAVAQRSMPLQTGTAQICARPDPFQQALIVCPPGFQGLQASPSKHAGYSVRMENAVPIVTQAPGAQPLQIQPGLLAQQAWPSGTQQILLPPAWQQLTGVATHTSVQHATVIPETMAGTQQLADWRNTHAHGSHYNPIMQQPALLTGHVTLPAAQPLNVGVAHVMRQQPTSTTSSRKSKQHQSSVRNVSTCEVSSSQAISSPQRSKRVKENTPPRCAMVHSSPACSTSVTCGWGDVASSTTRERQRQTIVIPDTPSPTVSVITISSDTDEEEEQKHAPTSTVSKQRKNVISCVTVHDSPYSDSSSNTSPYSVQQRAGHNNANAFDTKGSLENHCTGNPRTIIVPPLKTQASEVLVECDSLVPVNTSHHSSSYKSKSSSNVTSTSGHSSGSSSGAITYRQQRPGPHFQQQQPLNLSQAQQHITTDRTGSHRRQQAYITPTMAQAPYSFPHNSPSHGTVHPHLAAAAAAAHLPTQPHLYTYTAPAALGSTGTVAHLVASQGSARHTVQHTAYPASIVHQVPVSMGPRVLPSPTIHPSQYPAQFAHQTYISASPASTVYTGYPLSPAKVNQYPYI
T3 sequence (Q9UM73 19-1620 F1174L): as the sequence (Q9UM73 19-1620 L1196M) above, with F1156L, M1178L counted along it
T1 sequence (P10721 26-976 T670I): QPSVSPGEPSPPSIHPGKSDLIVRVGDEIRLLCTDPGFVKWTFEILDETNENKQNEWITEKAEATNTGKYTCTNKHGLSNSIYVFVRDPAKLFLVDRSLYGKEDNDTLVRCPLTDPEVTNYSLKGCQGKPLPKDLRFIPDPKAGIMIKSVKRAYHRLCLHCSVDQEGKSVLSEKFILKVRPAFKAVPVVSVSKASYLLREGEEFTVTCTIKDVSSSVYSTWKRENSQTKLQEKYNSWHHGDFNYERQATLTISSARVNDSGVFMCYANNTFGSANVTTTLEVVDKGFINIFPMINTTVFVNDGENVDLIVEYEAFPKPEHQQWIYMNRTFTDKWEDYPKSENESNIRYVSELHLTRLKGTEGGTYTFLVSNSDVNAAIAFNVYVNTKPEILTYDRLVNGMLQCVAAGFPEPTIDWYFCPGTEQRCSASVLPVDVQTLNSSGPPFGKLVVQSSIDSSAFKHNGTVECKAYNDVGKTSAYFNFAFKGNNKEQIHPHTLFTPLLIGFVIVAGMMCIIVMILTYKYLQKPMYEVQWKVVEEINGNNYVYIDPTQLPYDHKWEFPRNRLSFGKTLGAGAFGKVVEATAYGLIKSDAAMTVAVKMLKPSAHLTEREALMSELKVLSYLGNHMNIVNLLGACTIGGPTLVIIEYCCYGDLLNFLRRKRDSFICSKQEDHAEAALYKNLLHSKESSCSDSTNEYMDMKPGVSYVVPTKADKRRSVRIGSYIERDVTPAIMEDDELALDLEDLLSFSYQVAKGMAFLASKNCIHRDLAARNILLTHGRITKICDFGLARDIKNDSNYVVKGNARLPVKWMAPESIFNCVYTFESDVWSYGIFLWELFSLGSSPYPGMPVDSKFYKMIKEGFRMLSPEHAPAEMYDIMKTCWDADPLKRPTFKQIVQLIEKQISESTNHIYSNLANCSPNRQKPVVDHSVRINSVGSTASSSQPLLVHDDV

CC(C)c1cc(-c2n[nH]c(=O)n2-c2ccc3c(ccn3C)c2)c(O)cc1O [Ganetespib (STA9090)]
remaining activity at 10 µM (382 unique human kinases [1]): 67.1% | remaining activity at 10 µM (382 unique human kinases [2]): 70.2% | remaining activity at 10 µM (382 unique human kinases [3]): 63.6% | remaining activity at 10 µM (382 unique human kinases [4]): 90%

CC(C)c1cc(-c2n[nH]c(=O)n2-c2ccc3c(ccn3C)c2)c(O)cc1O [Ganetespib]
remaining activity at 10 µM (382 unique human kinases [5]): 93.1% | remaining activity at 10 µM (382 unique human kinases [6]): 55.2% | remaining activity at 10 µM (382 unique human kinases [7]): 94.5% | remaining activity at 10 µM (382 unique human kinases [8]): 101% | remaining activity at 10 µM (382 unique human kinases [9]): 30.4%

CCNC(=O)c1noc(-c2cc(C(C)C)c(O)cc2O)c1-c1ccc(CN2CCOCC2)cc1 [Luminespib (AUY-922)]
remaining activity at 10 µM (382 unique human kinases [1]): 84.5% | % Enzyme Activity (relative to DMSO controls) (382 unique human kinases [2]): 98.66% | remaining activity at 10 µM (382 unique human kinases [2]): 100% | % Enzyme Activity (relative to DMSO controls) (382 unique human kinases [3]): 104.30% | remaining activity at 10 µM (382 unique human kinases [3]): 104% | % Enzyme Activity (relative to DMSO controls) (382 unique human kinases [4]): 97.70% | remaining activity at 10 µM (382 unique human kinases [4]): 98.1%

CCNC(=O)c1noc(-c2cc(C(C)C)c(O)cc2O)c1-c1ccc(CN2CCOCC2)cc1 [Luminespib]
% Enzyme Activity (relative to DMSO controls) (382 unique human kinases [5]): 102.69% | remaining activity at 10 µM (382 unique human kinases [5]): 103% | % Enzyme Activity (relative to DMSO controls) (382 unique human kinases [6]): 93.71% | remaining activity at 10 µM (382 unique human kinases [6]): 98.4% | % Enzyme Activity (relative to DMSO controls) (382 unique human kinases [7]): 94.58% | remaining activity at 10 µM (382 unique human kinases [7]): 95.5% | % Enzyme Activity (relative to DMSO controls) (382 unique human kinases [8]): 103.59% | remaining activity at 10 µM (382 unique human kinases [8]): 105% | % Enzyme Activity (relative to DMSO controls) (382 unique human kinases [9]): 80.03% | remaining activity at 10 µM (382 unique human kinases [9]): 80.1%
